One experiment concerns the target T1, MALT1 (Homo sapiens, UniProt Q9UDY8).
T1 construct: Avi-tagged FL MALT-1 (Pharmaron, stored at −70° C.); Avi tag
T1 sequence (Q9UDY8 1-824): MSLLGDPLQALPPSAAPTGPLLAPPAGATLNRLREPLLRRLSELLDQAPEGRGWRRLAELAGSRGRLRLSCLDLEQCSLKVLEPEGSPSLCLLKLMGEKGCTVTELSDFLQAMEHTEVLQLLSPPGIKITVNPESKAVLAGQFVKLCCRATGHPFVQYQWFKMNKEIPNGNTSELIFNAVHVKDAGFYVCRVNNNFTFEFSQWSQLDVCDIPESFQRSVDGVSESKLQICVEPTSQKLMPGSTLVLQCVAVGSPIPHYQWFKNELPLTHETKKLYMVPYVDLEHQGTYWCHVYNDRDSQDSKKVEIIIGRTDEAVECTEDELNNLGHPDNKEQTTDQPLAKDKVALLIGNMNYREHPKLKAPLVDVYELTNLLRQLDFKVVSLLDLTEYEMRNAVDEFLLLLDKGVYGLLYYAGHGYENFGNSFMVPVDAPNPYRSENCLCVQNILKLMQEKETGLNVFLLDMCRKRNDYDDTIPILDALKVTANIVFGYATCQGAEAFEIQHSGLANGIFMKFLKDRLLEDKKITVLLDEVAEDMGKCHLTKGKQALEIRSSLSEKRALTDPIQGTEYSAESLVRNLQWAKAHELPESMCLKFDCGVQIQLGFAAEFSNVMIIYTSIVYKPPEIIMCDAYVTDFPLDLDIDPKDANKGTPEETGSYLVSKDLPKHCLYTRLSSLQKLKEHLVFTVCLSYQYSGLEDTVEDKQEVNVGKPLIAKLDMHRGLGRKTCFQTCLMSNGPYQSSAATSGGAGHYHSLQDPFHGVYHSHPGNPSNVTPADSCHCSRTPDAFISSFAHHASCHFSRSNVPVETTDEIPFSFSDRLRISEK
As to the kind of experiment: MALT-1 Fluorogenic Peptide Cleavage Assay (MALT1 inhibition assay). As to conditions: Avi-tagged FL MALT-1, Ac-LRSR-AMC peptide substrate, 30 min pre-incubation, 90 min reaction. It counts as biochemical. An outline of the steps:
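IC50 from sigmoidal fits of % inhibition, with fluorescence (ex 342, em 441 nm) from AMC released from the quenched LRSR peptide after 90 min at room temperature. Full-length Avi-tagged MALT1 saw compound for 30 min first; final DMSO 2%.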

For the next experiment, the system named is NF-kB. Briefly: NF-kB reporter assay in Jurkat cells stimulated with aCD3/aCD28/PMA. It counts as cell-based. As to conditions: read-out: NF-kB Reporter Assay IC50. An outline of the steps:
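Stimulation used final aCD3 5 μg/mL, aCD28 5 μg/mL and PMA 0.03 μg/mL for 4 hr at 37° C, after 1 hr compound pretreatment of 25,000 serum-starved Jurkat cells per well. One-Glo luminescence gave IC50 values.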
(In general: Reporter assays use an easily measured gene product as a stand-in for the process of interest.)

Setting [1] is: Homo sapiens, Jurkat, Jurkat cells, 1 hr compound incubation, aCD3/aCD28/PMA stimulation 4 hr, One-Glo readout.
Setting [2] is: Jurkat cells, 1 hr compound incubation, aCD3/aCD28/PMA stimulation 4 hr, One-Glo readout.

Molecules are shown by their SMILES. Like-named read-outs stand apart in the source and are kept apart here. Bounds are passed on as bounds.

Consider `Cn1ncc2cccc(NS(=O)(=O)c3ccc(-c4cnn5c4CCC5)nc3)c21` [Example I-269, 6-(5,6-dihydro-4H-pyrrolo[1,2-b]pyrazol-3-yl)-N-(1-methyl-1H-indazol-7-yl)pyridine-3-sulfonamide], for which the IC50 at MALT1 was greater than 2500 nM; with NF-kB (setting [1]) it was less than 400 nM.
For `Cn1ncc2cccc(NS(=O)(=O)c3ccc(-c4cnn5c4COCC5)nc3)c21` [Example I-270, 6-(6,7-dihydro-4H-pyrazolo[5,1-c][1,4]oxazin-3-yl)-N-(1-methyl-1H-indazol-7-yl)pyridine-3-sulfonamide], in that order: greater than 2500 nM and less than 400 nM.
For the compound `Cc1ncc(-c2ccc(S(=O)(=O)Nc3cccc4cnn(C)c34)cn2)n1C(F)(F)F` [Example I-271, 6-(2-methyl-1-(trifluoromethyl)-1H-imidazol-5-yl)-N-(1-methyl-1H-indazol-7-yl)pyridine-3-sulfonamide], the IC50 was greater than 2500 nM against MALT1 and less than 400 nM in the experiment on NF-kB (Homo sapiens, Jurkat).
For the compound `Cn1ncc2cccc(NS(=O)(=O)c3ccc(-c4cnn5c4CCCC5)nc3)c21` [Example I-272, N-(1-methyl-1H-indazol-7-yl)-6-(4,5,6,7-tetrahydropyrazolo[1,5-a]pyridin-3-yl)pyridine-3-sulfonamide], the IC50 against MALT1 was greater than 2500 nM; with NF-kB (setting [1]), less than 400 nM.
For `COc1ccc2c(F)nn(C)c2c1NS(=O)(=O)c1ccc(-n2cc(C(F)(F)F)cn2)nc1` [Example I-273, N-(3-fluoro-6-methoxy-1-methyl-1H-indazol-7-yl)-6-(4-(trifluoromethyl)-1H-pyrazol-1-yl)pyridine-3-sulfonamide], in that order: less than 400 nM and 400 to 1000 nM.
For `Cc1c(-c2ccc(S(=O)(=O)Nc3cccc4cnn(C)c34)cn2)cnn1C1COC1` [Example I-274], in that order: greater than 2500 nM and less than 400 nM.
In the case of `Cc1nn(C2COC2)cc1-c1ccc(S(=O)(=O)Nc2cccc3cnn(C)c23)cn1` [Example I-275], the IC50 was greater than 2500 nM at MALT1 and 400 to 1000 nM in the experiment on NF-kB (setting [1]).
Take `Cn1ncc2cccc(NS(=O)(=O)c3ccc(-n4cc(C(C)(C)C)cn4)nc3)c21` [Example I-276, 6-(4-tert-butylpyrazol-1-yl)-N-(1-methylindazol-7-yl)pyridine-3-sulfonamide]: the IC50 was greater than 2500 nM at MALT1 and less than 400 nM in the experiment with NF-kB (setting [1]).
Consider `Cn1ncc2cccc(NS(=O)(=O)c3ccc(-n4cc(C(C)(C)O)cn4)nc3)c21` [Example I-277], for which the results for the IC50 against MALT1 and in the experiment on NF-kB (setting [1]) were greater than 2500 nM and 400 to 1000 nM, respectively.
Regarding `COc1ccc2cnn(C)c2c1NS(=O)(=O)c1ccc(-n2cc(C(C)(C)O)cn2)nc1` [Example I-278, 6-(4-(2-hydroxypropan-2-yl)-1H-pyrazol-1-yl)-N-(6-methoxy-1-methyl-1H-indazol-7-yl)pyridine-3-sulfonamide], the IC50 against MALT1 and with NF-kB (setting [1]) was greater than 2500 nM throughout.
With `Cn1ncc2cccc(NS(=O)(=O)c3ccc(-n4cc(CO)cn4)nc3)c21` [Example I-279], the IC50 at MALT1 was greater than 2500 nM; with NF-kB (setting [1]) it was less than 400 nM.
Consider `COc1ccc2cnn(C)c2c1NS(=O)(=O)c1ccc(-n2cc(C(C)O)cn2)nc1` (stereo not shown) [Example I-280, 6-(4-(1-Hydroxyethyl)-1H-Pyrazol-1-yl)-N-(6-Methoxy-1-Methyl-1H-Indazol-7-yl)Pyridine-3-Sulfonamide], for which the IC50 against MALT1 was 400 to 1000 nM; with NF-kB (setting [1]), less than 400 nM.
As to `COc1ccc2cnn(C)c2c1NS(=O)(=O)c1ccc(-n2cc(C(C)O)cn2)nc1` (stereo not shown) [Example I-281, 6-(4-(1-Hydroxyethyl)-1H-Pyrazol-1-yl)-N-(6-Methoxy-1-Methyl-1H-Indazol-7-yl)Pyridine-3-Sulfonamide], the IC50 was 1000 to 2500 nM on MALT1 and less than 400 nM in the experiment on NF-kB (setting [2]).
Take `CC(O)c1cnn(-c2ccc(S(=O)(=O)Nc3cccc4cnn(C)c34)cn2)c1` (stereo not shown) [Example I-282]: the IC50 against MALT1 was greater than 2500 nM; with NF-kB (setting [1]), 400 to 1000 nM.
Take `CC(O)c1cnn(-c2ccc(S(=O)(=O)Nc3cccc4cnn(C)c34)cn2)c1` (stereo not shown) [Example I-283]: the IC50 was greater than 2500 nM against MALT1 and less than 400 nM with NF-kB (setting [2]).
On to `COc1ccc2cnn(C)c2c1NS(=O)(=O)c1ccc(-n2cc(CO)cn2)nc1` [Example I-284, 6-[4-(hydroxymethyl)pyrazol-1-yl]-N-(6-methoxy-1-methylindazol-7-yl)pyridine-3-sulfonamide], for which the IC50 at MALT1 was 400 to 1000 nM; in the experiment on NF-kB (setting [1]), less than 400 nM.
The corresponding values for `COc1ccc2cnn(C)c2c1NS(=O)(=O)c1ccc(-n2cc(C(C)(C)C)cn2)nc1` [Example I-285, 6-(4-tert-butylpyrazol-1-yl)-N-(6-methoxy-1-methylindazol-7-yl)pyridine-3-sulfonamide] are 400 to 1000 nM and less than 400 nM.
The corresponding values for `COc1ccc2cnn(C)c2c1NS(=O)(=O)c1ccc(-n2cnc(C(F)(F)F)c2)nc1` [Example I-286, N-(6-methoxy-1-methylindazol-7-yl)-6-[4-(trifluoromethyl)imidazol-1-yl]pyridine-3-sulfonamide] are less than 400 nM and less than 400 nM.
For `COc1ccc2cnn(C)c2c1NS(=O)(=O)c1ccc(-c2cnn3c2CCC3)nc1` [Example I-287], in that order: 1000 to 2500 nM and less than 400 nM.
Consider `Cc1n[nH]c2cccc(NS(=O)(=O)c3ccc(-c4cnn5c4CCC5)nc3)c12` [Example I-288], for which the IC50 on MALT1 was greater than 2500 nM; in the experiment with NF-kB (setting [1]), less than 400 nM.
The corresponding values for `COc1ncc2cnn(C)c2c1NS(=O)(=O)c1ccc(-c2cnn3c2CCC3)nc1` [Example I-289] are greater than 2500 nM and 400 to 1000 nM.
The corresponding values for `[2H]C([2H])([2H])n1ncc2cnc(OC)c(NS(=O)(=O)c3ccc(-n4cc(C(F)(F)F)cn4)nc3)c21` [Example I-290, N-(6-methoxy-1-(methyl-d3)-1H-pyrazolo[4,3-c]pyridin-7-yl)-6-(4-(trifluoromethyl)-1H-pyrazol-1-yl)pyridine-3-sulfonamide] are less than 400 nM and less than 400 nM.
The corresponding values for `[2H]C([2H])([2H])n1ncc2cnc(OC)c(N(C)S(=O)(=O)c3ccc(-n4cc(C(F)(F)F)cn4)nc3)c21` [Example I-291, N-(6-methoxy-1-(methyl-d3)-1H-pyrazolo[4,3-c]pyridin-7-yl)-N-methyl-6-(4-(trifluoromethyl)-1H-pyrazol-1-yl)pyridine-3-sulfonamide] are less than 400 nM and less than 400 nM.
As to `O=S(=O)(c1ccc(-n2cc(C(F)(F)F)cn2)nc1)N1CCCn2ncc3cccc1c32` [Example I-292, 1-((6-(4-(trifluoromethyl)-1H-pyrazol-1-yl)pyridin-3-yl)sulfonyl)-1,2,3,4-tetrahydro-[1,4]diazepino[3,2,1-hi]indazole], the IC50 at MALT1 is greater than 2500 nM; in the experiment on NF-kB (setting [1]), 400 to 1000 nM.
As to `O=S(=O)(c1ccc(-n2cc(C(F)(F)F)cn2)nc1)N1CCCCn2ncc3cccc1c32` [Example I-293, 1-((6-(4-(trifluoromethyl)-1H-pyrazol-1-yl)pyridin-3-yl)sulfonyl)-2,3,4,5-tetrahydro-1H-[1,4]diazocino[3,2,1-hi]indazole], the figures for the IC50 against MALT1 and in the experiment with NF-kB (setting [1]) were greater than 2500 nM and 400 to 1000 nM, respectively.
As to `O=S(=O)(c1ccc(-n2cc(C(F)(F)F)cn2)nc1)N1CCn2ncc3cccc1c32` [Example I-294, 1-((6-(4-(trifluoromethyl)-1H-pyrazol-1-yl)pyridin-3-yl)sulfonyl)-2,3-dihydro-1H-pyrazolo[1,5,4-de]quinoxaline], the half-maximal inhibitory concentration (IC50) at MALT1 was greater than 2500 nM; in the experiment on NF-kB (setting [1]) it was 1000 to 2500 nM.

As a reminder, the IC50 is the concentration that gives 50% inhibition.

(Values after US20240150365A1 (Hotspot Therapeutics, Inc., priority 2022, published 2024).)
